Source: ChEMBL document CHEMBL5236596, “Discovery and Optimization of N-Acyl-6-sulfonamide-tetrahydroquinoline Derivatives as Novel Non-Steroidal Selective Glucocorticoid Receptor Modulators” (J Med Chem, 2022)
pIC50: −log10 of the molar value.

Tests used:
[1] = Inhibition of LPS-induced IL-6 secretion in mouse primary peritoneal macrophages by ELISA; assay type: functional, cell-based; details: Peritoneal macrophage
[2] = Inhibition of LPS-induced TNF-alpha secretion in mouse primary peritoneal macrophages by ELISA; assay type: functional, cell-based; details: Peritoneal macrophage
Glucocorticoid receptor [3] = target: T1, Glucocorticoid receptor (Homo sapiens, UniProt P04150); assay: Binding affinity to glucocorticoid receptor (unknown origin) by Lanthascreen TR-FRET competition binding assay
T1 sequence (P04150 whole entry): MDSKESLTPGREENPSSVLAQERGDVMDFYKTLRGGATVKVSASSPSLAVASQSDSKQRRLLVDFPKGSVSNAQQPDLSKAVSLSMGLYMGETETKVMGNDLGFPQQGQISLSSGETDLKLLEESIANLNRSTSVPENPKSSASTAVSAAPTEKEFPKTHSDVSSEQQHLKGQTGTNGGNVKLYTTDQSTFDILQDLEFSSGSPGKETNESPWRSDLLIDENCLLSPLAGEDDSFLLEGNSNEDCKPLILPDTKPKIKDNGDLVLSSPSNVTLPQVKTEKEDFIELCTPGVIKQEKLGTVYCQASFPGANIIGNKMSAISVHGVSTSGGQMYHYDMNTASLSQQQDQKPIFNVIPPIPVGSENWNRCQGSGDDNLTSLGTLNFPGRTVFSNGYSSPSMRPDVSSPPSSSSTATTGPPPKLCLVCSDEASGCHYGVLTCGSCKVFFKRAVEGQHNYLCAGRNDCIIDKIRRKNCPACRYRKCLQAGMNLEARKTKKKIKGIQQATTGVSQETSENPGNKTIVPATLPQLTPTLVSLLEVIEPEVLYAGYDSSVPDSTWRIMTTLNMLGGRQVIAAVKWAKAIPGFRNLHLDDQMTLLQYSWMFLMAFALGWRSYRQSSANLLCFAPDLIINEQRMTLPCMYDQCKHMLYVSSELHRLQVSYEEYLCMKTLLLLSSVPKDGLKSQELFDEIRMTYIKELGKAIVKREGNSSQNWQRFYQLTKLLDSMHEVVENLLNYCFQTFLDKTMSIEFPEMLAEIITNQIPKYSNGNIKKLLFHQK

Glucocorticoid receptor [4] = target: T1, Glucocorticoid receptor; assay: Modulation of glucocorticoid receptor (unknown origin) transfected in human HeLa cells assessed as transrepression by measuring inhibition of TNF-alpha induced NF-kappaB signalling incubated for 18 hrs by dual-luciferase reporter based assay; assay type: cell-based
Glucocorticoid receptor [5] = target: T1, Glucocorticoid receptor; assay: Modulation of glucocorticoid receptor (unknown origin) transfected in human HeLa cells assessed as transrepression by measuring inhibition of PMA-induced AP-1 signalling incubated for 18 hrs by dual-luciferase reporter based assay; assay type: cell-based
Glucocorticoid receptor [6] = target: T1, Glucocorticoid receptor; assay: Antagonist activity at glucocorticoid receptor (unknown origin) transfected in human HeLa cells assessed as inhibition of dexamethasone-induced transactivation of receptor incubated for 18 hrs by firefly luciferase assay; assay type: cell-based
NIH3T3 = assay: Cytotoxicity against mouse 3T3 cells assessed as inhibition of cell growth; assay type: toxicity, cell-based
GES1 = assay: Cytotoxicity against human GES1 cells assessed as inhibition of cell growth; assay type: toxicity, cell-based
[7] = Cmax in BALB/c mouse at 10 mg/kg, po; assay type: ADME, organism-based; design: dose 10 mg/kg, route po; details: in vivo
[8] = Tmax in BALB/c mouse at 10 mg/kg, po; assay type: ADME, organism-based; details: in vivo
[9] = Half life in BALB/c mouse at 10 mg/kg, po; assay type: ADME, organism-based; details: in vivo
[10] = Oral bioavailability in BALB/c mouse at 10 mg/kg; assay type: ADME, organism-based; details: in vivo
[11] = Toxicity in DNCB-induced BALB/c atopic dermatitis mouse model assessed as reduction in body weight at 5 to 20 mg/kg, po administered via gavage for 21 consecutive days starting from day 4 post DNCB stimulation; assay type: organism-based; details: in vivo, 504 h, dose 5-20 mg/kg, time 21 day
[12] = Toxicity in DNCB-induced BALB/c atopic dermatitis mouse model assessed as body weight gain at 1 mg/kg, po administered via gavage for 21 consecutive days starting from day 4 post DNCB stimulation; assay type: organism-based; details: in vivo, 504 h, time 21 day
[13] = Cytotoxicity against human Chang liver cells assessed as inhibition of cell growth; assay type: toxicity, cell-based

pIC50 (Glucocorticoid receptor [3])	pIC50 (Glucocorticoid receptor [4])	pIC50 (Glucocorticoid receptor [5])	pIC50 (Glucocorticoid receptor [6])	SMILES	also measured
–	–	–	–	COc1ccc(C(=O)/C=C/c2cccc(OC)c2OC)cc1	pIC50 [1]: 5.00; pIC50 [2]: 5.00
5.50	6.33	5.57	4.92	COc1cc(C)c(Cl)cc1S(=O)(=O)Nc1ccc2c(c1)CCCN2C(C)=O	–
5.46	6.35	5.88	–	COc1ccc(C(=O)N2CCCc3cc(NS(=O)(=O)c4cc(Cl)c(C)cc4OC)ccc32)cc1OC	–
< 4.30	7.00	< 5.00	–	CCCCc1ccc(C(=O)N2CCCc3cc(NS(=O)(=O)c4cc(Cl)c(C)cc4OC)ccc32)cc1	–
< 4.30	6.15	5.57	–	COC(=O)c1ccc(C(=O)N2CCCc3cc(NS(=O)(=O)c4cc(Cl)c(C)cc4OC)ccc32)cc1	–
5.72	8.05	6.89	4.72	COc1cc(C)c(Cl)cc1S(=O)(=O)Nc1ccc2c(c1)CCCN2C(=O)c1ccccc1	pIC50 [1]: 5.16; pIC50 [2]: 5.11; Activity (NIH3T3): Non-Toxic; Activity (GES1): Non-Toxic; Cmax [7]: 394 ng/mL; Tmax [8]: 5 min; half-life [9]: 30 min; bioavailability [10]: 19.8%; Activity [11]: Non-Toxic
5.16	6.46	5.56	4.85	COc1cc(C)c(Cl)cc1S(=O)(=O)Nc1ccc2c(c1)CCCN2C(=O)c1ccc(F)cc1	–
< 5.00	< 5.00	5.19	< 5.00	O=C(c1ccco1)N1CCCc2cc(NS(=O)(=O)CCc3ccccc3)ccc21	–
5.56	7.30	6.28	4.56	COc1cc(C)c(Cl)cc1S(=O)(=O)Nc1ccc2c(c1)CCCN2C(=O)N(C)C	–
–	–	–	–	C[C@@H]1C[C@H]2[C@@H]3CCC4=CC(=O)C=C[C@]4(C)[C@@]3(F)[C@@H](O)C[C@]2(C)[C@@]1(O)C(=O)CO [DEXAMETHASONE]	Activity (GES1): Non-Toxic; Activity [12]: Non-Toxic
–	–	–	–	CC(C)[C@H](NC(=O)C(C)(F)F)[C@H](Oc1ccc2c(cnn2-c2ccc(=O)n(C)c2)c1)c1ccccc1 [MIZACORAT]	Activity (NIH3T3): Toxic; Activity (GES1): Toxic; Activity [13]: Toxic
